# Source: paper PMC8217340 (Phytotherapy research : PTR, 2021)
# Read-outs that look alike come from different tables or passages of the source.
# Tests used:
# human OATP1B1 [1] = target: T1, human OATP1B1 (Homo sapiens, UniProt Q9Y6L6); format: cell-based; conditions: 5 μM flavonolignan, 5 minutes; uptake minus wild-type CHO cells
# T1 sequence (Q9Y6L6 1-691): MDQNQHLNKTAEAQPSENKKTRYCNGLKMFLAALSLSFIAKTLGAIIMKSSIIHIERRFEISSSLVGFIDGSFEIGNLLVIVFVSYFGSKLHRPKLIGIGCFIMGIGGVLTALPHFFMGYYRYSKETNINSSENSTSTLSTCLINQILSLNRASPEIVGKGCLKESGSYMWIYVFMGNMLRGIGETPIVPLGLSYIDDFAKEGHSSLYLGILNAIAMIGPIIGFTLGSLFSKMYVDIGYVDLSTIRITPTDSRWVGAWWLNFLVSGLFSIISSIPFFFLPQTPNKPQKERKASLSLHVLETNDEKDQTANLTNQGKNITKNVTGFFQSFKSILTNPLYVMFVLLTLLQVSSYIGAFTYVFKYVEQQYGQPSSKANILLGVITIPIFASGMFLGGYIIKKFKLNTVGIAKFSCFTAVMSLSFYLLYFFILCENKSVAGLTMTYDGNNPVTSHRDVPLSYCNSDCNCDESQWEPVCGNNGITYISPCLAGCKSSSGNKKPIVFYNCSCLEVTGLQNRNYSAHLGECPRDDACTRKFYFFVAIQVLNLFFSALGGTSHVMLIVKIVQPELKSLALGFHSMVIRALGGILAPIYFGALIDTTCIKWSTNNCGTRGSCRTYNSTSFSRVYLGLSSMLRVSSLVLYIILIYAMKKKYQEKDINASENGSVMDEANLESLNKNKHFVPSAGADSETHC
# human OATP1B3 [2] = target: T2, human OATP1B3 (Homo sapiens, UniProt Q9NPD5); format: cell-based; conditions: 5 μM flavonolignan, 5 minutes; uptake minus wild-type CHO cells
# T2 sequence (Q9NPD5 1-702): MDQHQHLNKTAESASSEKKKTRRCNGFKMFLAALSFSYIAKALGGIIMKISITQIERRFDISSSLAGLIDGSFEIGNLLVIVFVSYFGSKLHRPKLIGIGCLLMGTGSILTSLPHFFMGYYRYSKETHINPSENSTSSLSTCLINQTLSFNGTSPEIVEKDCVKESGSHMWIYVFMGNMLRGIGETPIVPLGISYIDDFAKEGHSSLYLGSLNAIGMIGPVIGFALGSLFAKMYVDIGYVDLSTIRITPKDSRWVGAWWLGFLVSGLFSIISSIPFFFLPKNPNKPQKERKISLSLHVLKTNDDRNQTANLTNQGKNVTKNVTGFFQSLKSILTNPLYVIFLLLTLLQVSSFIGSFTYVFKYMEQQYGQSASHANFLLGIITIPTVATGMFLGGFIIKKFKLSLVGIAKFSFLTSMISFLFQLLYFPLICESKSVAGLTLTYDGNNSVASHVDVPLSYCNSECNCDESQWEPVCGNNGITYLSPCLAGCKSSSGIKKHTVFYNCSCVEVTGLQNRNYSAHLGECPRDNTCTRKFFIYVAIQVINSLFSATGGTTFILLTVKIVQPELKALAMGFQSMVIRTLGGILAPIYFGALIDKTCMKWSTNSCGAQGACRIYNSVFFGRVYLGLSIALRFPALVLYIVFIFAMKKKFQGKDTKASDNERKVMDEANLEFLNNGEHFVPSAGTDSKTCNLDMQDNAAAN
# human OATP2B1 = target: T3, human OATP2B1 (Homo sapiens, UniProt O94956); format: cell-based; conditions: 5 μM flavonolignan, 5 minutes; for substrate for OATP2B1: uptake minus wild-type CHO cells
# T3 sequence (O94956 1-709): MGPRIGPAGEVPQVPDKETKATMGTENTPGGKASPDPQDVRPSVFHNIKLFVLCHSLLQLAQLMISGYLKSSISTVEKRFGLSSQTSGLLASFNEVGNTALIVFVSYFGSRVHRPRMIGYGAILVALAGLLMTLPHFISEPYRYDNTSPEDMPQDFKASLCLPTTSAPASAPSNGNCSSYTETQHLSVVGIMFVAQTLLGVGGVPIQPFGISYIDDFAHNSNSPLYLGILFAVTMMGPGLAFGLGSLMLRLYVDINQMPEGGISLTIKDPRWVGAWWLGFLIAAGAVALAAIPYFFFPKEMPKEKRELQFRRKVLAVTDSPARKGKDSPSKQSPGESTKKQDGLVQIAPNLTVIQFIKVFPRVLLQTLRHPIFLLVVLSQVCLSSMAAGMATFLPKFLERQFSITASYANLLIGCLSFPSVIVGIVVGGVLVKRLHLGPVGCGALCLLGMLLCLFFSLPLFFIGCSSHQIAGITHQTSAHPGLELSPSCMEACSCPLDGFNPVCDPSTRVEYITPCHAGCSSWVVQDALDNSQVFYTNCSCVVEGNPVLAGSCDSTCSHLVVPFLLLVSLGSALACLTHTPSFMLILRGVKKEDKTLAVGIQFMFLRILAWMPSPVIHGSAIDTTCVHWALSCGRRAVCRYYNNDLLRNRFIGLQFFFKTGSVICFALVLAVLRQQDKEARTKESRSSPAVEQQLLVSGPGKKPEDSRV
# [3] = format: in vivo, Sprague Dawley rats
# [4] = format: in vivo, Sprague Dawley rats; conditions: 27 hours after pitavastatin gavage
# [5] = read-out: average Cmax; NAFLD and HCV patients; ref Fried, 2012; Wah Kheong et al., 2017; cited from earlier work
# [6] = for Cmax: NASH animals, silymarin 500 mg/kg oral gavage, plasma, geometric mean (90% CI)
# UGT2B7 = conditions: ref Uchaipichat, 2018; cited from earlier work
# [7] = human, in vivo; cited from earlier work
# [8] = in vivo; cited from earlier work
# human OATP1B3 [9] = target: T2, human OATP1B3; format: cell-based
# human OATP1B1 [10] = target: T1, human OATP1B1; format: cell-based
molecule,measurement,setting,value
"COc1cc([C@H]2Oc3ccc([C@H]4Oc5cc(O)cc(O)c5C(=O)[C@@H]4O)cc3O[C@@H]2CO)ccc1O [IA, isosilybin A]",substrate for OATP1B1,human OATP1B1 [1],substrates
same,substrate for OATP1B3,human OATP1B3 [2],substrates
same,substrate for OATP2B1,human OATP2B1,substrates
"COc1cc([C@@H]2Oc3ccc([C@H]4Oc5cc(O)cc(O)c5C(=O)[C@@H]4O)cc3O[C@H]2CO)ccc1O [IB, isosilybin B]",substrate for OATP1B1,human OATP1B1 [1],substrates
same,substrate for OATP1B3,human OATP1B3 [2],substrates
same,substrate for OATP2B1,human OATP2B1,substrates
"O=C(O)C[C@H](O)C[C@H](O)/C=C/c1c(C2CC2)nc2ccccc2c1-c1ccc(F)cc1 [Pitavastatin, Pitavastatin calcium]",silymarin effect on pitavastatin Cmax,[3]; 40-minute offset between pitavastatin and silymarin administration,no significant silymarin effect
same,increase of pitavastatin AUC0-27h by silymarin,[3]; NASH silymarin group vs NASH vehicle,1.8 fold
same,increase of pitavastatin AUC0-27h by NASH alone,[3]; NASH vehicle compared to control vehicle,2.9 fold
same,increase of pitavastatin AUC0-27h by the combination of silymarin and NASH,[3]; compared to the control vehicle group,5.1 fold
same,increase of pitavastatin AUC0-27h by silymarin,[3]; control silymarin group vs control vehicle,1.8 fold
same,increase of pitavastatin Cmax by NASH compared to control,[3]; in the absence of silymarin,3.9 fold
same,increase of pitavastatin Cmax by NASH compared to control,[3]; in the presence of silymarin,2.8 fold
same,"liver pitavastatin content, NASH vs control groups",[4],not different
same,liver to plasma ratio in the NASH group,[4],decreased
"COc1cc([C@H]2Oc3cc([C@H]4Oc5cc(O)cc(O)c5C(=O)[C@@H]4O)ccc3O[C@@H]2CO)ccc1O [SA, silybin A]",Cmax,[5],0.8 to 4.2 µM
same,substrate for OATP1B1,human OATP1B1 [1],substrates
same,substrate for OATP1B3,human OATP1B3 [2],substrates
same,substrate for OATP2B1,human OATP2B1,substrates
same,plasma AUC of SA relative to that of SC,[6]; oral silymarin 500 mg/kg,110 times
"COc1cc([C@@H]2Oc3cc([C@H]4Oc5cc(O)cc(O)c5C(=O)[C@@H]4O)ccc3O[C@H]2CO)ccc1O [SB, silybin B]",substrate for OATP1B1,human OATP1B1 [1],substrates
same,substrate for OATP1B3,human OATP1B3 [2],substrates
same,substrate for OATP2B1,human OATP2B1,substrates
"COc1cc([C@@H]2Oc3c(O)cc([C@H]4Oc5cc(O)cc(O)c5C(=O)[C@@H]4O)cc3[C@H]2CO)ccc1O [SC, silychristin]",substrate for OATP1B1,human OATP1B1 [1],substrates
same,substrate for OATP1B3,human OATP1B3 [2],substrates
same,transport activity of OATP2B1 compared to SA,human OATP2B1,lower transport activity
same,substrate for OATP2B1,human OATP2B1,substrates
"COc1cc([C@@H]2[C@H]3CO[C@@]4(O)C(=O)[C@@H]2C=C([C@H]2Oc5cc(O)cc(O)c5C(=O)[C@@H]2O)[C@@H]34)ccc1O [SD, silydianin]",substrate for OATP1B1,human OATP1B1 [1],substrates
same,substrate for OATP1B3,human OATP1B3 [2],substrates
same,substrate for OATP2B1,human OATP2B1,substrates
COc1cc(C2Oc3cc([C@H]4Oc5cc(O)cc(O)c5C(=O)[C@@H]4O)ccc3OC2CO)ccc1O (stereo partly shown) [silybin],concentrations at which inhibition of UGT2B7 occurs,UGT2B7,0.60 to 1.5 mM
silybin A-4”-O-β-D-glucuronide [S4G],Cmax,[6],12.6 µM
silybin A-7-O-β-D-glucuronide [S7G],Cmax,[6],12.6 µM
silymarin,adverse events,[7],no adverse events
same,safety of the dose,[8],safe
same,leftward shift in IC50 for OATP1B3,human OATP1B3 [9],1.7 fold
same,leftward shift in IC50 for OATP1B1,human OATP1B1 [10],2.8 fold
